Data set [1] deals with T1, adenosine deaminase from calf intestinal mucosa (Bos taurus, UniProt P56658).
T1 construct: against adenosine deaminase from calf intestinal mucosa; from tissue; host or cells: calf intestinal mucosa
As to the kind of experiment: Adenosine deaminase assay (Example 17). Format: biochemical. As to conditions: Lineweaver-Burk plots; with and without preincubation. The method, then:
Inhibition of adenosine deaminase (ADA) by Compound 17-1 and Compound 17-2 (see FIG. 13 for chemical structures; note that structure 1 FIG. 13 is the same as that in figure except that it is written in an anti-conformation in the former) was investigated in vitro against adenosine deaminase from calf intestinal mucosa in a 50 mM phosphate buffer (pH=7.4) at 25° C., by spectro-photometrically monitoring the rate of hydrolysis of substrate adenosine at 265 nm. Stock solutions of the substrate, enzyme, and inhibitors were prepared using a 50 mM phosphate buffer (pH 7.4). The enzyme kinetics was followed by measuring the change in optical density (decrease in absorbance) per minute of the substrate adenosine. By keeping the concentration of the inhibitor constant, and by varying the substrate concentration, a set of kinetic data was obtained. Additional sets of data were generated using different concentrations of the inhibitor. […]
(a) pre-incubation of the enzyme with the inhibitor; here the enzyme (ADA 10 μL) and inhibitor were preincubated for 10 min in a calculated amount of phosphate buffer (50 mM, pH 7.5 ) at 25° C. and the reaction was initiated by the addition of substrate, adenosine, and (b) without preincubation; here the reaction was started by addition of ADA (10 μL) to a mixture of adenosine and inhibitor in the phosphate buffer at 25° C. […]

Data set [2] deals with T2, guanine deaminase (guanase) from rabbit liver (Oryctolagus cuniculus, UniProt G1T386).
T2 construct: from tissue; host or cells: rabbit liver
As to the kind of experiment: Guanine deaminase assay (Example 17). Format: biochemical. Particulars: Lineweaver-Burk plots. The method, then: Stock solutions of the substrate, enzyme, and inhibitors were prepared using a 50 mM Tris-HCl buffer (pH 7.4). The enzyme kinetics was followed by measuring the change in optical density (decrease in absorbance) per minute of the substrate guanine. By keeping the concentration of the inhibitor constant, and by varying the substrate concentration, a set of kinetic data was obtained. Additional sets of data were generated using different concentrations of the inhibitor. The substrate concentration in each assay ranged 6-20 μM; a total of six different concentrations were employed. The inhibitor concentration used in each assay was 30 or 40 μM. The amount of enzyme used in each assay was 0.0076 unit. The Ki for inhibition assays was computed from Lineweaver-Burk plots. The Lineweaver-Burk plot (1/V vs 1/[S]), as well as the linear regression analysis of kinetic data, were performed using the program Quattro Pro (version 6.01) for Windows.™.

Data set [3] has as its system P3HR-1 strain of EBV. As to the kind of experiment: Viral capsid antigen (VCA) / EBV immunofluorescence assay in Daudi cells. Type of data set: cell-based, Epstein-Barr virus. Particulars: for SI (Selectivity Index), Daudi Cells: IC50 (Daudi cells) divided by anti-EBV EC50; for SI (Selectivity Index), Neutral Red Uptake: IC50 (neutral red, stationary HFF) divided by anti-EBV EC50; for SI (Selectivity Index), HFF Cells: IC50 (rapidly growing HFF) divided by anti-EBV EC50; for EC50: human gammaherpesvirus 4, Daudi cells, read-out: Antiviral Activity (EC50), anti-EBV. As to the method:
After virus adsorption, the cells were washed and pelleted, and the supernatant was discarded. The drugs to be tested were serially diluted in RPMI-1640 and added to the appropriate tubes. The cultures were incubated for 2 days in complete medium to allow viral gene expression. Following the 48 h incubation period, a number of cells of each sample were counted and washed in phosphate-buffered saline (PBS), and slides were prepared. The slides were dried overnight. The dried cells were fixed with acetone. A monoclonal antibody to viral capsid antigen (VCA) was then added to the cells, incubated for 30 min at 37° C., and washed in PBS. This was followed by a fluorescein-conjugated goat anti-mouse IgG antibody. The cells were counterstained with. Evans Blue. A total of 500 negative and fluorescence positive cells were counted. The total number of VCA positive cells in the cultures was calculated and EC50 values determined using Microsoft Excel Software.
(§1) Data Analysis: Dose-response relationships were constructed by linearly regressing the percent inhibition of parameters derived in the preceding sections against log drug concentrations. Fifty-percent inhibitory (IC50) concentrations were calculated from the regression lines.

A short description of data set [4]: Neutral red uptake assay, stationary HFF cells. Format: cell-based. As to conditions: human, read-out: Cytotoxicity (IC50), Neutral Red Uptake. The method, then: (B) Neutral Red Uptake Assay: Twenty-four hours prior to assay, HFF cells were plated into 96-well plates at a concentration of 2.5×10^4 cells/well. After 24 h, the media was aspirated, and […] of media containing drug was added to the first row of wells and then diluted serially 1:5 using the automated Cetus Liquid Handling System. The plates were then incubated in a Co2 incubator at 37° C. for 7 days. At this time the media/drug was removed, cells were washed, 200 μL/well of 0.01% neutral red in PBS was added, and the mixture was incubated for 1 h. The dye was removed, and the cells were washed using a Nunc Plate Washer. After the wash was removed, […] of 50% ethanol/1% aqueous acetic acid was added. The plates were placed on a rotating shaker for 15 min, and the optical densities were then read at 540 nm using a plate reader.
as §1

Data set [5] is described as follows: Cell proliferation assay, rapidly growing Daudi cells. Particulars: human; for IC50 at 72 h: rapidly growing Daudi cells, read-out: Cytotoxicity (IC50), Daudi Cells. Type of data set: cell-based. As to the method:
(§2) The toxicity of Compounds 14-1 and 14-2 was also measured in rapidly growing human foreskin fibroblast (HFF) cells and Daudi cells by cell proliferation assay (National Institute of Allergy and Infectious Diseases (NIAID), NIH, Bethesda, Md.). According to the assay method, the appropriate cells were seeded in six-well plates in MEM containing 10% FBS. Twenty four hours later, the cells were treated with several dilutions of the test compounds covering a range of 0.03-100 μg/ml. The plates were incubated in a CO2 incubator at 37° C. for 72h. The cells were washed after removing the media and subsequently released from the plate wells by the addition of 1 ml of 0.25% trypsin. The contents in the wells were mixed, diluted with Isotone III and counted using a Coulter counter. The CC50 values (concentration of compound giving 50% inhibition of cell proliferation) were calculated by linear regression analysis. Toxicity of Compound 14-1 was also evaluated in bone marrow precursor cells by previously published procedure (Sommadossi, J.-P., et al., Biochem. Pharmacol., 44:1921-1925, 1992).
(§3) (A) Cell Proliferation Assay: Twenty-four hours prior to assay, cells (HFF or Daudi) were seeded in six-well plates at a concentration of 2.5×10^4 cells per well in MEM containing 10% FBS. On the day of the assay, drugs were diluted serially in MEM containing 10% FBS at increments of 1:5 covering a range from […]. For drugs that had to be solubilized in DMSO, control wells receive MEM containing 10% DMSO. The media from the wells was then aspirated, and 2 mL of each drug concentration was added to each well. The cells were incubated in a CO2 incubator at 37° C. for 72 h. At the end of this time, the media-drug solution was removed, and the cells were washed. Trypsin-EDTA (0.25%, 1 mL) was added to each well and incubated until the cells started to come off the plate. The cell-media mixture was then pipeted up and down vigorously to break up the cell suspension and 0.2 mL of the mixture added to 9.8 mL of Isoton III and the cells were counted using a Coulter Counter. Each sample was counted three times with two replicate wells per sample. The IC50 values were calculated using a computer program.

Data set [6] is described as follows: Cell proliferation assay, rapidly growing HFF cells. Type of data set: cell-based. Particulars: human, rapidly growing human foreskin fibroblast (HFF) cells; for IC50 at 72 h: rapidly growing HFF cells, read-out: Cytotoxicity (IC50), HFF Cells. As to the method: as §2, §3
The target of data set [7] is T3, bacteriophage T7 RNA polymerase (Escherichia phage T7, UniProt P00573).
T3 construct: purchased Promega P2075
Description: Transcription catalyzed by T7 RNA polymerase. Format: biochemical. The method, then: To show whether the “fat” nucleotide Compound 15-2 (FNTP) is incorporated into RNA during transcription, experiments were performed using bacteriophage T7 RNA polymerase (RNAP) and a synthetic 42-mer DNA template shown below that is annealed to a 17-nucleotide promoter specific for T7 RNAP. This promoter-template enables the synthesis of 25-mer RNA, and the purine analogue may be incorporated in positions +1, +11, +13, +15, +21, +22, and +23.
Transcription reaction conditions were optimized with the use of ^32P CTP for labeling RNA transcripts. Polyacrylimide gel electrophoresis of the transcription products obtained from the 42-mer template, using 1 mM each of four natural NTPs, reveled a 25-mer RNA as the major product, together with shorter and longer labeled transcripts (FIG. 9, lane 1). The additional bands observed are consistent with the known ability of T7 RNA polymerase to add non-coded residues at the 3′-end of transcripts. (Milligan, J. F., et al., Nuc. Acids Res., 15, 8783-8798, 1987) With the use of 1 mM nucleotide Compound 15-2 (FNTP), the yield of transcription was reduced (lane 2).
With the use of a synthetic 37-mer DNA template, annealed to a 17-nucleotide promoter for T7 RNAP as shown below, a 20 nucleotide-long transcript RNA was obtained when the reaction mixture contained all four NTPs in appropriate concentrations, along with many shorter “abortive” fragments. (Milligan, J. F., et al., Nuc. Acids Res., 15, 8783-8798, 1987). For the reaction with modified nucleotide, typically
the concentration of the appropriate natural nucleotide was reduced. […] (Milligan, J. F., et al., Methods in Enzymol., 180, 51-63, 1989.) In the present experiments, the synthesis of RNA was compared under standard conditions (using 4 NTPs in 0.2 mM concentration each) with the synthesis of RNA by using an additional “fat” nucleoside triphosphate Compound 15-2 (FNTP) in varying (0.05-10 mM) concentrations. The reaction mixtures were incubated at 37° C. for 2 hours, and the products were denatured in a buffer containing urea. The products were separated by 20% polyacrylamide-urea gel electrophoresis and visualized by autoradiography.
Transcription samples (total volume 10 μL contained: 40 mM Tris-HCl pH 8.1 with 6 mM MgCl2, 5 mM dithiothreitol (DTT), 1 mM spermidine, 0.01% Triton-X 100, 50 μg/mL bovine serum albumin, 250 nM synthetic DNA template with a promotor for T7 RNAP, 4 units of T7 RNA polymerase, and 0.2 mM ribonucleoside triphosphates. A single α^32P-labeled NTP was added for labeling (typicallly 1 μL of 10 mCi/mL ). Inhibition assays were monitored with varying concentrations (0.05-10 mM) of nucleotide Compound 15-2. Polyacrylamide gel (20%) electrophoresis was performed on slab gels (18 cm×16 cm, or 35 cm×44 cm) containing 8M urea. […]

Molecules are shown by their SMILES. Converted amounts (≈) assume the structure as drawn. “Also recorded” adds a separate entry of the source.

T1 sequence (P56658 whole entry): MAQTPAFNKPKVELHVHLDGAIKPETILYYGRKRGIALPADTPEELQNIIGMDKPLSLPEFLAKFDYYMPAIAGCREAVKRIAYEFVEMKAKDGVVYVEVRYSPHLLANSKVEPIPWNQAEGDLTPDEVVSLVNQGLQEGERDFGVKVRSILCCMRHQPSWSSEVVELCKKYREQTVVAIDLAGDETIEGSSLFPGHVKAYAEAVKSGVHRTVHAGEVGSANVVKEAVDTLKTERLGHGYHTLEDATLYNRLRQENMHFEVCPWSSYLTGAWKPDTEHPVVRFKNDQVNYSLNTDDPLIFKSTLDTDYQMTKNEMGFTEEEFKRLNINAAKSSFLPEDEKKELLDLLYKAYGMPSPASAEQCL
T3 sequence (P00573 whole entry): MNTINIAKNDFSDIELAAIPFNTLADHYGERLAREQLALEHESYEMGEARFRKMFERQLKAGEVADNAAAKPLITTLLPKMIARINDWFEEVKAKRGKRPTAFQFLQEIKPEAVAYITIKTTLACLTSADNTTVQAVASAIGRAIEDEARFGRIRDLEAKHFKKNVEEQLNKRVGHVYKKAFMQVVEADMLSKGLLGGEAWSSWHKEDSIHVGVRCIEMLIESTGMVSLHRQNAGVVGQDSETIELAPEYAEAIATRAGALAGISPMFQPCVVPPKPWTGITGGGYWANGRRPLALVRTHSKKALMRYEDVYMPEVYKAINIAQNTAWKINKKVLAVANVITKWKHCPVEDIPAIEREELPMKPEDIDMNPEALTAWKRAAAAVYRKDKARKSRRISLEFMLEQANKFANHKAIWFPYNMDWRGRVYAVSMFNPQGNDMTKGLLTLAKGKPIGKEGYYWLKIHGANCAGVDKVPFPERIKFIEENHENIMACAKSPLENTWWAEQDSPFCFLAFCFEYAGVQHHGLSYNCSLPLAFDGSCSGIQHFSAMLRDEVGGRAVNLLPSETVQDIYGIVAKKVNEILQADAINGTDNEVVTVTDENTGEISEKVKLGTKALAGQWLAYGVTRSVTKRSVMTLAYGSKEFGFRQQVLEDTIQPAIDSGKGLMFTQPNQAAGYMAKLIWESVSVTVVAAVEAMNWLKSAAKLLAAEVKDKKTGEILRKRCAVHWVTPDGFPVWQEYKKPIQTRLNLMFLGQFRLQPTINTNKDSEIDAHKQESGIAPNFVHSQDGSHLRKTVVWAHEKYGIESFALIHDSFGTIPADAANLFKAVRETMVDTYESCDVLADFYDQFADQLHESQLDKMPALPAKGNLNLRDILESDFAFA
T2 sequence (G1T386 1-454): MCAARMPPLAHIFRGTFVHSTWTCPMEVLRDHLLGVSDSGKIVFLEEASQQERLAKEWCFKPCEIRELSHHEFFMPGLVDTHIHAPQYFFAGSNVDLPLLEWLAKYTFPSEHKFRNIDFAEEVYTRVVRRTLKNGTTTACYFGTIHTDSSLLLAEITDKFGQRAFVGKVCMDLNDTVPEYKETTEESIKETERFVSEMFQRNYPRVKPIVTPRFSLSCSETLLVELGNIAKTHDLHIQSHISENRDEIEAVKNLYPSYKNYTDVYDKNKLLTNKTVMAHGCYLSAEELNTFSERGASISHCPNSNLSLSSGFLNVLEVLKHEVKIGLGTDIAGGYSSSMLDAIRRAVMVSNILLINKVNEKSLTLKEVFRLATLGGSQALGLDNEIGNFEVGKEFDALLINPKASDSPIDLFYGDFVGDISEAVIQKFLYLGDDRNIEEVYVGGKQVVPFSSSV

Consider `N=c1nc(N)c2ncn(COCCO)c2c(N)n1` [Compound 17-2], for which the “mode of inhibition of adenosine deaminase” value in data set [1] was “competitive inhibitor; also recorded: reversible inhibitor”. Also, the “inhibition of guanine deaminase (guanase), mode” value in data set [2] is given as “competitive inhibitor”.
For the compound `O=C1c2ncn(Cc3ccccc3)c2N(Cc2ccccc2)C(=O)CN1Cc1ccccc1` [Compound 18-1, 3,4,7-Tribenzyl-4,5,7,8-tetrahydro-6H-imidazo[4,5-e][1,4]diazepine-5,8-dione], the melting point was in the range of 170 to 172 °C. In data set [3], the “SI (Selectivity Index), Daudi Cells” value is reported as greater than 12; the “SI (Selectivity Index), Neutral Red Uptake” value is greater than 24; the “SI (Selectivity Index), HFF Cells” value is greater than 24; the EC50 came to 4.1 µg/mL (≈ 9.39 µM). In addition, the IC50 at 7 days in data set [4] was greater than 100 µg/mL. Further, the IC50 at 72 h in data set [5] is greater than 50 µg/mL. Also, the IC50 at 72 h in data set [6] is greater than 100 µg/mL.
As for `Nc1nc2c(ncn2COCCO)c(=O)[nH]1` [Aciclovir, reference compound], in data set [3], the “SI (Selectivity Index), Daudi Cells” value is recorded as greater than 62; the “SI (Selectivity Index), Neutral Red Uptake” value was greater than 125; the “SI (Selectivity Index), HFF Cells” value is greater than 125; the EC50 worked out at 0.8 µg/mL (≈ 3.55 µM). The IC50 at 7 days in data set [4] was greater than 100 µg/mL. This compound also returned a CC50 at 72 h in data set [5] (Rapidly growing Daudi cells) greater than 50 µg/mL. Besides, the IC50 at 72 h in data set [5] was greater than 50 µg/mL. In addition, in data set [6] (Rapidly growing HFF cells), the CC50 at 72 h was greater than 100 µg/mL. The IC50 at 72 h in data set [6] is greater than 100 µg/mL.
In the case of `N=c1nc(N)nc(N)c2ncn([C@@H]3O[C@H](COP(=O)(O)OP(=O)(O)OP(=O)(O)O)[C@@H](O)[C@H]3O)c12` [Compound 15-2, 5′-triphosphate derivative of 4,6-diamino-8-imino-8H-1-β-D-ribofuranosylimidazo[4,5-e][1,3]diazepine], the “incorporation into RNA during transcription (substrate for T7 polymerase)” value in data set [7] (42-mer DNA template) is “not a substrate for T7 polymerase”. Further, the “inhibition of T7 RNA polymerase-catalyzed transcription” value in data set [7] (42-mer and 37-mer DNA templates, 0.05-10 mM) is “inhibitor of T7 polymerase”.
In turn, `O=C1NCC(=O)N(Cc2ccccc2)c2c1nc(Br)n2Cc1ccccc1` [Compound 18-2, 3,4-Dibenzyl-2-bromo-4,5,7,8-tetrahydro-6H-imidazo[4,5-e][1,4]diazepine-5,8-dione] gave a melting point of 239 to 241 °C. Besides, in data set [3], the “SI (Selectivity Index), Daudi Cells” value is greater than 6; the “SI (Selectivity Index), Neutral Red Uptake” value is reported as greater than 12; the “SI (Selectivity Index), HFF Cells” value is listed as greater than 12; the EC50 was 8.3 µg/mL (≈ 19.5 µM). Moreover, in data set [4], the IC50 at 7 days is greater than 100 µg/mL. In data set [5], the 50% inhibitory concentration (IC50) at 72 h is greater than 50 µg/mL. Moreover, the IC50 at 72 h in data set [6] is greater than 100 µg/mL.

The values are drawn from patent US6677310B1, “Ring-expanded nucleosides and nucleotides” (Nabi, priority 1999, dated 2004).
